In the supplement of paper PMC13380429:

Legend:
Settings in all cases: 72 h
Caco-2 [1] = assay: cell viability relative to DMSO; higher = less toxic
Caco-2 [2] = assay: relative viability EC50 (midpoint between 100% and the lowest measured viability); higher = less toxic
Caco-2 [3] = assay: drug sensitivity score (DSS) for viability; higher = more toxic; extreme values may be limits of the assay
Vero E6 [4] = assay: as above
U2OS [5] = assay: as above
HepG2 [6] = assay: as above
Calu-3 [7] = assay: as above
Vero E6 [8] = assay: cell viability relative to DMSO; higher = less toxic
U2OS [9] = assay: as above
HepG2 [10] = assay: as above
Calu-3 [11] = assay: as above
Calu-3 [12] = assay: relative viability EC50 (midpoint between 100% and the lowest measured viability); higher = less toxic
Vero E6 [13] = assay: as above
U2OS [14] = assay: as above
HepG2 [15] = assay: as above

Row | SMILES | cell viability (Caco-2 [1]; 1 nM) | cell viability (Caco-2 [1]; 10 nM) | cell viability (Caco-2 [1]; 100 nM) | cell viability (Caco-2 [1]; 1000 nM) | cell viability (Caco-2 [1]; 10000 nM) | relative viability EC50 (Caco-2 [2]) | drug sensitivity score (Caco-2 [3]) | drug sensitivity score (Vero E6 [4]) | drug sensitivity score (U2OS [5]) | drug sensitivity score (HepG2 [6]) | drug sensitivity score (Calu-3 [7]) | cell viability (Vero E6 [8]; 1 nM) | cell viability (Vero E6 [8]; 10 nM) | cell viability (Vero E6 [8]; 100 nM) | cell viability (Vero E6 [8]; 1000 nM) | cell viability (Vero E6 [8]; 10000 nM) | cell viability (U2OS [9]; 1 nM) | cell viability (U2OS [9]; 10 nM) | cell viability (U2OS [9]; 100 nM) | cell viability (U2OS [9]; 1000 nM) | cell viability (U2OS [9]; 10000 nM) | cell viability (HepG2 [10]; 1 nM) | cell viability (HepG2 [10]; 10 nM) | cell viability (HepG2 [10]; 100 nM) | cell viability (HepG2 [10]; 1000 nM) | cell viability (HepG2 [10]; 10000 nM) | cell viability (Calu-3 [11]; 1 nM) | cell viability (Calu-3 [11]; 10 nM) | cell viability (Calu-3 [11]; 100 nM) | cell viability (Calu-3 [11]; 1000 nM) | cell viability (Calu-3 [11]; 10000 nM) | relative viability EC50 (Calu-3 [12]) | relative viability EC50 (Vero E6 [13]) | relative viability EC50 (U2OS [14]) | relative viability EC50 (HepG2 [15])
1 | COc1ccccc1OCC(O)COC(N)=O (configuration not stated) [methocarbamol] | 102% | 98.4% | 98.3% | 103% | 100% | > 10 µM | 0 | – | – | – | – | – | – | – | – | – | – | – | – | – | – | – | – | – | – | – | – | – | – | – | – | – | – | – | –
2 | O=C(O)CN(CCN(CC(=O)O)CC(=O)O)CC(=O)O [ethylenediaminetetraacetic-acid] | – | – | – | – | – | – | – | 0 | 0 | 0 | 0 | – | – | – | – | – | – | – | – | – | – | – | – | – | – | – | – | – | – | – | – | – | – | – | –
3 | CN1CCN(c2cccc(Nc3nc4c(-c5ccc(S(C)(=O)=O)cc5)cccn4n3)c2)CC1 | 78.9% | 95.2% | 95.1% | 93.1% | 91% | > 10 µM | 0 | 1.6 | 2.1 | 3.6 | 0 | 96.4% | 95.1% | 94.8% | 96.3% | 73.6% | 96.1% | 102% | 94.8% | 95.8% | 68.9% | 100% | 95.9% | 94.1% | 84.8% | 58.9% | 97.9% | 99.4% | 91.8% | 125% | 136% | > 10 µM | – | – | –
4 | Cc1cc2c(F)c(Oc3ncnn4cc(OC[C@@H](C)OC(=O)[C@H](C)N)c(C)c34)ccc2[nH]1 [brivanib-alaninate] | 91.8% | 98.5% | 88.2% | 101% | 86.3% | > 10 µM | 0.1 | 0 | 1 | – | 0.1 | 93.1% | 96% | 96.5% | 90.9% | 88.2% | 94.2% | 101% | 92.5% | 101% | 73.1% | – | – | – | – | – | 90.8% | 103% | 95.3% | 102% | 86.5% | > 10 µM | > 10 µM | – | –
5 | O=C(C1CC1)N1CC[C@@H](Cc2n[nH]c(=O)n2-c2ccc(-c3ccc4occc4c3)cc2)C1 | 104% | 97.8% | 91.9% | 89.5% | 76.3% | > 10 µM | 1.7 | 0 | 0 | 3.6 | – | 97.4% | 101% | 98.8% | 100% | 98.9% | 102% | 96.2% | 101% | 97.3% | 99.7% | 109% | 106% | 93.2% | 80.2% | 71.2% | – | – | – | – | – | – | > 10 µM | > 10 µM | –
6 | CS(=O)(=O)CCNCc1nc(-c2ccc3ncnc(Nc4ccc(OCc5cccc(F)c5)c(Cl)c4)c3c2)cs1 | 97.1% | 97.5% | 90.5% | 80.8% | 73.1% | – | 3.5 | 3.7 | 0 | 0 | – | 95% | 98.3% | 93.3% | 79% | 72.5% | 99.9% | 100% | 96.7% | 94.2% | 89.8% | 106% | 111% | 93.5% | 102% | 104% | – | – | – | – | – | – | – | > 10 µM | > 10 µM
7 | Cc1ccc(-c2nn(C(C)(C)C)c3ncnc(N)c23)cc1 [PP-1] | 102% | 96.2% | 103% | 91.5% | 59.7% | – | 3.4 | 2.3 | 3.8 | 2.3 | 4.5 | 107% | 104% | 103% | 105% | 48.7% | 100% | 94.8% | 104% | 90.9% | 55% | 106% | 91.8% | 92.8% | 89.3% | 69% | 85.9% | 96.9% | 94% | 91.2% | 43.9% | 1.94 µM | 3.66 µM | – | –
8 | CC(C)(O)CC[C@@H](O)[C@](C)(O)[C@H]1CC[C@@]2(O)C3=CC(=O)[C@@H]4C[C@@H](O)[C@@H](O)C[C@]4(C)[C@H]3CC[C@]12C [20-hydroxyecdysone] | 98.8% | 98.4% | 85.5% | 96.8% | 97.1% | > 10 µM | 0 | – | 0 | – | 0 | – | – | – | – | – | 98% | 101% | 99.2% | 99.7% | 102% | – | – | – | – | – | 93.6% | 101% | 91% | 102% | 114% | > 10 µM | – | > 10 µM | –
9 | O=C(/C=C/c1cccnc1)c1ccncc1 [3PO] | 103% | 97.1% | 99.7% | 92.3% | 77.3% | > 10 µM | 1.8 | 0 | 0.5 | 0.7 | – | 107% | 112% | 100% | 111% | 87.7% | 101% | 99.7% | 100% | 99% | 82.5% | 103% | 102% | 93.2% | 112% | 72.7% | – | – | – | – | – | – | > 10 µM | > 10 µM | –
10 | O=C1NC(=O)[C@@]2(CCOc3ccc(F)cc32)N1 [sorbinil] | – | – | – | – | – | – | – | – | 0 | – | 0 | – | – | – | – | – | 96.7% | 105% | 97% | 102% | 96.5% | – | – | – | – | – | 103% | 120% | 87.5% | 113% | 102% | > 10 µM | – | > 10 µM | –
